Columns and labels:
[1] = target: cdk2/cyclinA (Homo sapiens, UniProt P24941); assay: Cyclin-dependent kinase assay (cdk2/cyclinA); type: biochemical; conditions: Table 1
Description: (§1) All components except the ATP were added to the wells, and the plate was placed on a plate mixer for 2 minutes. […] The reaction was terminated by addition of 0.1 mL of 20% TCA. The plate was kept at 4°C for at least 1 hour to allow the substrate to precipitate. The wells were then washed five times with 0.2 mL of 10% TCA and ^32P incorporation determined with a beta plate counter (Wallac Inc., Gaithersburg, MD).

[2] = target: cdk4/D (Homo sapiens, UniProt P11802); assay: Cyclin-dependent kinase 4 (cdk4) enzyme assay, 32P incorporation into retinoblastoma; type: biochemical; conditions: Table 1; 25 µM ATP, retinoblastoma substrate
cdk4/D, sequence (P11802 whole entry): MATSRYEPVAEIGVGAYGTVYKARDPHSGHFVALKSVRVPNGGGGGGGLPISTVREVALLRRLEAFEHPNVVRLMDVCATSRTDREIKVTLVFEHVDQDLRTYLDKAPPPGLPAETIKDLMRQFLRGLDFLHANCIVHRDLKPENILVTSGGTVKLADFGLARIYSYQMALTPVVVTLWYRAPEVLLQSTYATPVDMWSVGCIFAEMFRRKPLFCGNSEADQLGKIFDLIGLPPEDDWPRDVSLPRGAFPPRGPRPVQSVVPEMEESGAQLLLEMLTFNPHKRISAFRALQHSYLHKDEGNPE
cdk4/D, sequence (P24385 whole entry, further chain): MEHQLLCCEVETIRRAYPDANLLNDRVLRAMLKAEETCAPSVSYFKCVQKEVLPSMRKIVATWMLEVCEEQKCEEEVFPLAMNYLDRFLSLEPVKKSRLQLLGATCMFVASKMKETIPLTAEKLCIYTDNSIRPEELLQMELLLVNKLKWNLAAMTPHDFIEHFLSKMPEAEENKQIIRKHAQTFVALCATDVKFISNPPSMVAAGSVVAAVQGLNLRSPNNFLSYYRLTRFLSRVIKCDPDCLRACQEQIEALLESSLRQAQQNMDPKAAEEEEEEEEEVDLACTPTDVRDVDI
Description: A typical assay, for instance, measures inhibitory activity against the cyclin D dependent kinase 4 enzyme (cdk4/D). […] The cdk 4 assay was carried out as follows.
as §1, with “trichloroacetic acid (TCA).” for “TCA.”, “incorporation was” for “incorporation”

[3] = Plasma levels in mice after dosing; type: in vivo, nude mice; conditions: at 30 minutes following dosing
Description: For example, the compound of Example 60 was administered orally at 5 mg/kg to mice, and plasma levels of about 200 nM were measured at 30 minutes following dosing. The compound was also administered intraperitoneally at 12 mg/kg and produced a peak plasma concentration of 10,000 nM at 30 minutes following dosing.

[4] = target: c-Src (Homo sapiens, UniProt P12931); assay: c-Src protein kinase assay; type: biochemical; conditions: Table 5
c-Src, sequence (P12931 whole entry, the tested form may be a part): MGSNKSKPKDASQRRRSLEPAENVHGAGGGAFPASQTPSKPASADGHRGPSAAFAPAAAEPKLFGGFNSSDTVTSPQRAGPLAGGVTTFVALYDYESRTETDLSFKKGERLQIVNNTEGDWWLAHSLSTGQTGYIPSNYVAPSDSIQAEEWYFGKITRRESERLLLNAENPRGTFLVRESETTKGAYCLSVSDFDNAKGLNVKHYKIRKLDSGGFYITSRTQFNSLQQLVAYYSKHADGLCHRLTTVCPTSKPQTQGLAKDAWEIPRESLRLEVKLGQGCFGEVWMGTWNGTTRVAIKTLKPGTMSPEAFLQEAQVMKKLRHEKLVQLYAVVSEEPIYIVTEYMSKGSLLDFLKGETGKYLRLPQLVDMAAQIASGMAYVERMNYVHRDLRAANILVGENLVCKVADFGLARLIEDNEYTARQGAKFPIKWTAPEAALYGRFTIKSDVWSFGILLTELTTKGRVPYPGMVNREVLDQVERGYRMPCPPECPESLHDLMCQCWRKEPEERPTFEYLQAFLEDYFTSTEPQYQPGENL
Description: C-Src kinase was purified from baculovirus infected insect cell lysates using an antipeptide monoclonal antibody directed against the N-terminal amino acids (amino acids 2-17) of c-Src. The antibody, covalently linked to 0.65 µm latex beads, was added to a suspension of insect cell lysis buffer comprised of 150 mM NaCl, 50 mM Tris pH 7.5, 1 mM DTT, 1% NP-40,2 mM EGTA, 1 mM sodium vanadate, 1 mM PMSF, 1 µg/mL each of leupeptin, pepstatin, and aprotinin. Insect cell lysate containing c-Src protein was incubated with these beads for 3 to 4 hours at 4°C with rotation. At the end of the lysate incubation, the beads were rinsed three times in lysis buffer, resuspended in lysis buffer containing 10% glycerol, and frozen. These latex beads were thawed, rinsed three times in assay buffer (40 mM Tris, pH 7.5, […]) and suspended in the same buffer. In a Millipore 96-well plate with a 0.65 µm polyvinylidine membrane bottom were added the reaction components: 10 µL c-Src beads, 10 µL of 2.5 mg/mL poly GluTyr substrate, 5 µM ATP containing 0.2 µCi labeled ^32P-ATP, 5 µL DMSO containing inhibitors or as a solvent control, and buffer to make the final volume 125 µL. The reaction was started at room temperature by addition of the ATP and quenched 10 minutes later by the addition of 125 µL of 30% TCA, 0.1 M sodium pyrophosphate for 5 minutes on ice. […] The filters were then punched, counted in a liquid scintillation counter, and the data examined for inhibitory activity in comparison to a known inhibitor such as erbstatin. […]

[5] = target: cdk2/cyclinE (Homo sapiens, UniProt P24941); assay: Cyclin-dependent kinase assay (cdk2/cyclinE); type: biochemical; conditions: Table 1; read-out: cdk2/E IC50
Description: as §1

[6] = system: MCF-7 human mammary tumor xenografts; assay: MCF-7 tumor xenograft growth inhibition in mice; type: in vivo, female nude mice; conditions: doses of 5 to 20 mg/kg, schedule q12h × 2; days 1-14
[7] = target: cdc2/cyclinB (Homo sapiens, UniProt P06493); assay: Cyclin-dependent kinase assay (cdc2/cyclinB); type: biochemical; conditions: Table 1; read-out: cdk1/B IC50
cdc2/cyclinB, sequence (P06493 whole entry): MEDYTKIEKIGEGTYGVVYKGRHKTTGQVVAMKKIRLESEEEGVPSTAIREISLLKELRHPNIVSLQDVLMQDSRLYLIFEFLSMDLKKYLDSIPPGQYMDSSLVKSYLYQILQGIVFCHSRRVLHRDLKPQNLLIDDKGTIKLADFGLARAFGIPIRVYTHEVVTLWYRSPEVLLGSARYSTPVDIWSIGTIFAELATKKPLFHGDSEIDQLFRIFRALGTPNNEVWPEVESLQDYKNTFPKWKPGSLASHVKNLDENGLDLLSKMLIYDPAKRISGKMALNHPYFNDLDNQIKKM
cdc2/cyclinB, sequence (P14635 whole entry, further chain): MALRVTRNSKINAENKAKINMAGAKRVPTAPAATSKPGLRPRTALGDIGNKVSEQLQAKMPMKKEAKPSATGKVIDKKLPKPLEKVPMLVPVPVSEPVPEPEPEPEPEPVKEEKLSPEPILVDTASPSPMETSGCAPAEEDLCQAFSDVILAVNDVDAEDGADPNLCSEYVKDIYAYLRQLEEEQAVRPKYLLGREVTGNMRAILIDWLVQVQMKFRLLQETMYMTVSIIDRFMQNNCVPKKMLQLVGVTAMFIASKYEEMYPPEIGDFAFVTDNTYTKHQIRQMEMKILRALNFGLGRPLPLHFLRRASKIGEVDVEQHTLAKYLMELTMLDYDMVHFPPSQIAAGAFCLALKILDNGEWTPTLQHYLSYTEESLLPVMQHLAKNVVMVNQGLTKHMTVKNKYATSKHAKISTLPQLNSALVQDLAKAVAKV
Description: as §1

[8] = target: cdk6/D3 (Homo sapiens, UniProt Q00534); assay: cdk6/D3 enzyme assay, similar to cdk4 assay; type: biochemical; conditions: read-out: IC50 against cdk6/D3
cdk6/D3, sequence (P30281 whole entry): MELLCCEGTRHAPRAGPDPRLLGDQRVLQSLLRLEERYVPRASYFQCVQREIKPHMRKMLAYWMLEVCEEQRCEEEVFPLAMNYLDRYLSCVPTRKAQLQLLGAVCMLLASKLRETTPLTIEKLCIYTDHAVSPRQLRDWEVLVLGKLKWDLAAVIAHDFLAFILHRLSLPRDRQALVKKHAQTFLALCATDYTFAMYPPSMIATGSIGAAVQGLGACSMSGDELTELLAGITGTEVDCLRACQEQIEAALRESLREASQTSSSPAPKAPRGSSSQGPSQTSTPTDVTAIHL
cdk6/D3, sequence (Q00534 whole entry): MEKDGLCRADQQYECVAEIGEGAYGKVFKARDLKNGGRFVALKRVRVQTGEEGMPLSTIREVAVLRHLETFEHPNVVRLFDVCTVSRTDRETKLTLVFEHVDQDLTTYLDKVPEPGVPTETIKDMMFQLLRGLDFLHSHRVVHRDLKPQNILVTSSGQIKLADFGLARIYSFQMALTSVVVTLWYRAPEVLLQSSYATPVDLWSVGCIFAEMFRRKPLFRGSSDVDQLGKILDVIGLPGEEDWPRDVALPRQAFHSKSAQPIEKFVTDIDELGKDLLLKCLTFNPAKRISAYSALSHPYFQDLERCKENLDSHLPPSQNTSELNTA
Description: (§2) The total volume was 0.1 mL containing a final concentration of 20 mM TRIS (tris[hydroxymethyl]aminomethane), at pH 7.4, 50 mM NaCl, 1 mM dithiothreitol, 10 mM MgCl2, 25 µM ATP containing 0.25 µCi of [^32P]ATP, 20 ng of cdk4, 1 µg of retinoblastoma, and appropriate dilutions of a compound of the present invention. All components except the ATP were added to the wells, and the plate was placed on a plate mixer for 2 minutes. The reaction was started by adding [^32P]ATP and the plate was incubated at 25°C for 15 minutes. The reaction was terminated by addition of 0.1 mL of 20% trichloroacetic acid (TCA). The plate was kept at 4°C for at least 1 hour to allow the substrate to precipitate. The wells were then washed five times with 0.2 mL of 10% TCA and ^32P incorporation was determined with a beta plate counter (Wallac Inc., Gaithersburg, MD).
(§3) Several of the invention compounds have also shown good inhibitory activity against cdk6/D2 and cdk6/D3 enzymes. These assays are carried out in a manner similar to that described above for cdk4, by simply employing the appropriate cdk6 kinase enzyme.

[9] = target: cdk6/D2 (Homo sapiens, UniProt Q00534); assay: cdk6/D2 enzyme assay, similar to cdk4 assay; type: biochemical; conditions: read-out: IC50 against cdk6/D2
cdk6/D2, sequence (Q00534 whole entry): as above
cdk6/D2, sequence (P30279 whole entry, further chain): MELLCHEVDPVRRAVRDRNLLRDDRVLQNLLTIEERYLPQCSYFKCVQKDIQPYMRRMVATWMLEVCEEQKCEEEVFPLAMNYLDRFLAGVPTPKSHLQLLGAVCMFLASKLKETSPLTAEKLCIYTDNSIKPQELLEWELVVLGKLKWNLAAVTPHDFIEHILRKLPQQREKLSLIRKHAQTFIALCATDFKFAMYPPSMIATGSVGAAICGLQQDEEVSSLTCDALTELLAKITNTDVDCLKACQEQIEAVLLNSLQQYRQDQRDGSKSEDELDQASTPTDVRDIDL
Description: as §2, §3

In the case of CC(C)n1c(=O)ccc2cnc(Nc3ccc(N4CCN(C)CC4)cc3)nc21 [Example 60, 8-Isopropyl-2-[4-(4-methylpiperazin-1-yl)-phenylamino]-8H-pyrido[2,3-d]pyrimidin-7-one], the IC50 [1] is reported as 58 nM, the IC50 [2] is reported as 32 nM and the peak plasma concentration ([3]; intraperitoneally at 12 mg/kg) is reported as 10,000 nM. The concentration at 30 min ([3]; nude, mouse, plasma, po, mice, orally at 5 mg/kg) was roughly 200 nM, the IC50 [4] was 890 nM and the IC50 [5] was 270 nM. The tumor growth inhibitions [6] was “statistically insignificant tumor growth inhibitions” and the IC50 [7] was 675 nM.

Work on O=c1ccc2cnc(Nc3ccc(N4CCC(CCCO)CC4)cc3)nc2n1C1CC2CCC1C2 (stereo not shown) [Example 214, 8-Bicyclo[2.2.1]hept-2-yl-2-{4-[4-(3-hydroxy-propyl)-piperidin-1-yl]-phenylamino}-8H-pyrido[2,3-d]pyrimidin-7-one] yielded an IC50 [8] of 13 nM and an IC50 [9] of 7.1 nM.

Reference: patent publication EP1806348A2, “Pyrido (2,3-D)Pyrimidines as inhibitors of cellular proliferation” (Warner-Lambert Company LLC, priority 1997, dated 1998)
